Measurements published in ChEMBL document CHEMBL1221210, “A Cdc7 kinase inhibitor restricts initiation of DNA replication and has antitumor activity” (Nat Chem Biol, 2008).
pIC50: −log10 of the molar value. The source made the active and inactive calls. The calls are words filed in the database; no cut-off is given here.

Tests used:
SF-268 [1] = experiment: Induction of cell cycle arrest in p53 deficient human SF268 cells assessed as accumulation at subG1 phase at 0.1 uM after 24 hrs FACS analysis; format: functional
K562 [2] = experiment: Induction of cell cycle arrest in p53 deficient human K562 cells assessed as accumulation at subG1 phase at 0.1 uM after 24hrs by FACS analysis; format: functional
HeLa [3] = experiment: Induction of cell cycle arrest in p53 deficient human HeLa cells assessed as assessed as accumulation at subG1 phase at 0.1 uM after 24hrs by FACS analysis; format: functional
SW480 [4] = experiment: Induction of cell cycle arrest in p53 deficient human SW480 cells assessed as accumulation at subG1 phase at 0.1 uM after 24hrs by FACS analysis; format: functional
COLO 205 [5] = experiment: Induction of cell cycle arrest in p53 deficient human COLO205 cells assessed as accumulation at subG1 phase at 0.1 uM after 24hrs by FACS analysis; format: functional
[6] = Induction of cell cycle arrest in p53 deficient human HCT116-E6 cells assessed as accumulation at subG1 phase at 0.1 uM after 24hrs by FACS analysis; format: functional
Jurkat [7] = experiment: Induction of cell cycle arrest in p53 deficient human Jurkat cells assessed as accumulation at subG1 phase at 0.1 uM after 24hrs by FACS analysis; format: functional
[8] = Induction of cell cycle arrest in p53 deficient human A2780/E6 cells as accumulation at subG1 phase at 0.1 uM after 24hrs by FACS analysis; format: functional
OVCAR-8 [9] = experiment: Induction of cell cycle arrest in p53 deficient human OVCAR8 cells assessed as accumulation at subG1 phase at 0.1 uM after 24hrs by FACS analysis; format: functional
MCF7 [10] = experiment: Induction of cell cycle arrest in human MCF7 cells expressing p53 gene assessed as accumulation at subG1 phase at 0.1 uM after 24hrs by FACS analysis; format: functional
HCT-116 [11] = experiment: Induction of cell cycle arrest in human HCT116 cells expressing p53 gene assessed as accumulation at subG1 phase at 0.1 uM after 24hrs by FACS analysis; format: functional
HCT-15 [12] = experiment: Induction of cell cycle arrest in human HCT15 cells expressing p53 gene assessed as accumulation at subG1 phase at 0.1 uM after 24hrs by FACS analysis; format: functional
SF-539 [13] = experiment: Induction of cell cycle arrest in human SF539 cells expressing p53 gene assessed as accumulation at subG1 phase at 0.1 uM after 24hrs by FACS analysis; format: functional
U2OS [14] = experiment: Induction of cell cycle arrest in human U2OS cells expressing p53 gene assessed as accumulation at subG1 phase at 0.1 uM after 24hrs by FACS analysis; format: functional
A2780 [15] = experiment: Induction of cell cycle arrest in human A2780 cells expressing p53 gene assessed as accumulation at subG1 phase at 0.1 uM after 24hrs by FACS analysis; format: functional
PC-3 [16] = experiment: Induction of cell cycle arrest in human PC3 cells expressing p53 gene assessed as accumulation at subG1 phase at 0.1 uM after 24hrs by FACS analysis; format: functional
NHDF [17] = experiment: Induction of cell cycle arrest in NHDF expressing p53 gene assessed as accumulation at subG1 phase at 0.1 uM after 24hrs by FACS analysis; format: cell-based; conditions: human
SF-268 [18] = experiment: Antiproliferative activity against p53 deficient human SF268 cells after 72 hrs; format: functional, cell-based; conditions: SF-268, 72 h
K562 [19] = experiment: Antiproliferative activity against p53 deficient human K562 cells after 72 hrs; format: functional, cell-based; conditions: K562, 72 h
HeLa [20] = experiment: Antiproliferative activity against p53 deficient human HeLa cells after 72 hrs; format: functional, cell-based
SW480 [21] = experiment: Antiproliferative activity against p53 deficient human SW480 cells after 72 hrs by proliferative assay; format: functional, cell-based; conditions: SW480, 72 h
COLO 205 [22] = experiment: Antiproliferative activity against p53 deficient human COLO205 cells after 72 hrs; format: functional, cell-based; conditions: COLO 205, 72 h
[23] = Antiproliferative activity against p53 deficient human HCT116/E6 cells after 72 hrs by proliferative assay; format: functional, cell-based; conditions: HCT116-E6, 72 h
Jurkat [24] = experiment: Antiproliferative activity against p53 deficient human Jurkat cells after 72 hrs by proliferative assay; format: functional, cell-based
[25] = Antiproliferative activity against p53 deficient human A2780/E6 cells after 72 hrs by proliferative assay; format: functional, cell-based; conditions: A2780/E6, 72 h
OVCAR-8 [26] = experiment: Antiproliferative activity against p53 deficient human OVCAR8 cells after 72 hrs by proliferative assay; format: functional, cell-based; conditions: OVCAR-8, 72 h
MCF7 [27] = experiment: Antiproliferative activity against human MCF7 cells expressing p53 gene after 72 hrs by proliferative assay; format: functional, cell-based; conditions: MCF7, 72 h
HCT-116 [28] = experiment: Antiproliferative activity against human HCT116 cells expressing p53 gene after 72 hrs by proliferative assay; format: functional, cell-based; conditions: HCT-116, 72 h
HCT-15 [29] = experiment: Antiproliferative activity against human HCT15 cells expressing p53 gene after 72 hrs by proliferative assay; format: functional, cell-based; conditions: HCT-15, 72 h
SF-539 [30] = experiment: Antiproliferative activity against human SF539 cells expressing p53 gene after 72 hrs by proliferative assay; format: functional, cell-based; conditions: SF-539, 72 h
U2OS [31] = experiment: Antiproliferative activity against human U2OS cells expressing p53 gene after 72 hrs by proliferative assay; format: functional, cell-based
A2780 [32] = experiment: Antiproliferative activity against human A2780 cells expressing p53 gene after 72 hrs by proliferative assay; format: functional, cell-based; conditions: A2780, 72 h
PC-3 [33] = experiment: Antiproliferative activity against human PC3 cells expressing p53 gene after 72 hrs by proliferative assay; format: functional, cell-based; conditions: PC-3, 72 h
NHDF [34] = experiment: Antiproliferative activity against NHDF expressing p53 gene after 72 hrs by proliferative assay; format: cell-based; conditions: Homo sapiens
A2780 [35] = experiment: Induction of apoptosis in human A2780 cells assessed as appearance of Mcl1 protein level after 24 hrs; format: functional, cell-based
PC-3 [36] = experiment: Induction of cell cycle arrest in human PC3 cells expressing p53 gene assessed as accumulation at subG1 phase at 100 uM after 24hrs by FACS analysis; format: functional
NHDF [37] = experiment: Induction of cell cycle arrest in NHDF expressing p53 gene assessed as accumulation at subG1 phase at 100 uM after 24hrs by FACS analysis; format: cell-based; conditions: human
SF-268 [38] = experiment: Induction of cell cycle arrest in p53 deficient human SF268 cells assessed as accumulation at subG1 phase at 100 uM after 24 hrs FACS analysis; format: functional
K562 [39] = experiment: Induction of cell cycle arrest in p53 deficient human K562 cells assessed as accumulation at subG1 phase at 100 uM after 24hrs by FACS analysis; format: functional
HeLa [40] = experiment: Induction of cell cycle arrest in p53 deficient human HeLa cells assessed as assessed as accumulation at subG1 phase at 100 uM after 24hrs by FACS analysis; format: functional
SW480 [41] = experiment: Induction of cell cycle arrest in p53 deficient human SW480 cells assessed as accumulation at subG1 phase at 100 uM after 24hrs by FACS analysis; format: functional
COLO 205 [42] = experiment: Induction of cell cycle arrest in p53 deficient human COLO205 cells assessed as accumulation at subG1 phase at 100 uM after 24hrs by FACS analysis; format: functional
[43] = Induction of cell cycle arrest in p53 deficient human HCT116-E6 cells assessed as accumulation at subG1 phase at 100 uM after 24hrs by FACS analysis; format: functional
Jurkat [44] = experiment: Induction of cell cycle arrest in p53 deficient human Jurkat cells assessed as accumulation at subG1 phase at 100 uM after 24hrs by FACS analysis; format: functional
[45] = Induction of cell cycle arrest in p53 deficient human A2780/E6 cells as accumulation at subG1 phase at 100 uM after 24hrs by FACS analysis; format: functional
OVCAR-8 [46] = experiment: Induction of cell cycle arrest in p53 deficient human OVCAR8 cells assessed as accumulation at subG1 phase at 100 uM after 24hrs by FACS analysis; format: functional
MCF7 [47] = experiment: Induction of cell cycle arrest in human MCF7 cells expressing p53 gene assessed as accumulation at subG1 phase at 100 uM after 24hrs by FACS analysis; format: functional
HCT-116 [48] = experiment: Induction of cell cycle arrest in human HCT116 cells expressing p53 gene assessed as accumulation at subG1 phase at 100 uM after 24hrs by FACS analysis; format: functional
HCT-15 [49] = experiment: Induction of cell cycle arrest in human HCT15 cells expressing p53 gene assessed as accumulation at subG1 phase at 100 uM after 24hrs by FACS analysis; format: functional
SF-539 [50] = experiment: Induction of cell cycle arrest in human SF539 cells expressing p53 gene assessed as accumulation at subG1 phase at 100 uM after 24hrs by FACS analysis; format: functional
U2OS [51] = experiment: Induction of cell cycle arrest in human U2OS cells expressing p53 gene assessed as accumulation at subG1 phase at 100 uM after 24hrs by FACS analysis; format: functional
A2780 [52] = experiment: Induction of cell cycle arrest in human A2780 cells expressing p53 gene assessed as accumulation at subG1 phase at 100 uM after 24hrs by FACS analysis; format: functional

## Nc1ccn([C@@H]2O[C@H](CO)[C@@H](O)C2(F)F)c(=O)n1 [GEMCITABINE]
SF-268 [1]
  Activity: <3%
K562 [2]
  Activity: <3%
HeLa [3]
  Activity: <3%
SW480 [4]
  Activity: <3%
COLO 205 [5]
  Activity: <3%
[6]
  Activity: <3%
Jurkat [7]
  Activity: >20%
[8]
  Activity: <3%
OVCAR-8 [9]
  Activity: <3%
MCF7 [10]
  Activity: <3%
HCT-116 [11]
  Activity: <3%
HCT-15 [12]
  Activity: 3%
SF-539 [13]
  Activity: <3%
U2OS [14]
  Activity: <3%
A2780 [15]
  Activity: <3%
PC-3 [16]
  Activity: <3%
NHDF [17]
  Activity: < 3%
SF-268 [18]
  pIC50: 7.99
K562 [19]
  pIC50: 6.13
HeLa [20]
  pIC50: < 5.00
SW480 [21]
  pIC50: 7.87
COLO 205 [22]
  pIC50: 7.29
[23]
  pIC50: 6.05
Jurkat [24]
  pIC50: 7.34
[25]
  pIC50: 8.59
OVCAR-8 [26]
  pIC50: 8.59
MCF7 [27]
  pIC50: 7.10
HCT-116 [28]
  pIC50: 8.01
HCT-15 [29]
  pIC50: 8.00
SF-539 [30]
  pIC50: 7.70
U2OS [31]
  pIC50: 7.04
A2780 [32]
  pIC50: 7.78
PC-3 [33]
  pIC50: 8.59
NHDF [34]
  pIC50: 7.66

## CN1CC[C@H](c2c(O)cc(O)c3c(=O)cc(-c4ccccc4Cl)oc23)[C@H](O)C1
A2780 [35]
  inhibition: Active

## O=c1[nH]cc(F)c(=O)[nH]1 [FLUOROURACIL]
PC-3 [36]
  Activity: <3%
NHDF [37]
  Activity: < 3%
SF-268 [18]
  pIC50: 4.06
K562 [19]
  pIC50: < 4.00
HeLa [20]
  pIC50: < 4.00
SW480 [21]
  pIC50: 4.58
COLO 205 [22]
  pIC50: 4.93
[23]
  pIC50: 4.54
Jurkat [24]
  pIC50: 4.06
[25]
  pIC50: 4.41
OVCAR-8 [26]
  pIC50: 4.02
MCF7 [27]
  pIC50: 4.57
HCT-116 [28]
  pIC50: 5.20
HCT-15 [29]
  pIC50: 4.74
SF-539 [30]
  pIC50: 4.30
U2OS [31]
  pIC50: 4.88
A2780 [32]
  pIC50: 5.14
PC-3 [33]
  pIC50: 4.86
NHDF [34]
  pIC50: 4.83
SF-268 [38]
  Activity: <3%
K562 [39]
  Activity: <3%
HeLa [40]
  Activity: <3%
SW480 [41]
  Activity: <3%
COLO 205 [42]
  Activity: <3%
[43]
  Activity: <3%
Jurkat [44]
  Activity: <3%
[45]
  Activity: <3%
OVCAR-8 [46]
  Activity: <3%
MCF7 [47]
  Activity: <3%
HCT-116 [48]
  Activity: 10%
HCT-15 [49]
  Activity: <3%
SF-539 [50]
  Activity: <3%
U2OS [51]
  Activity: <3%
A2780 [52]
  Activity: <3%
